Assay [1] concerns the target T1, full-length HCV NS3 protein fused to eGFP (UniProt P27958+Q96SW2).
T1 construct: expressing the full-length HCV NS3 protein fused to eGFP; mCherry via FMVD 2A self-cleavage linker (C, cleaved yes); expressed in transfected cells
Nature of the assay: Transient cellular HCV NS3 degradation assay. It is filed as cell-based, Hepatitis C virus. The settings on record: for degradation of transiently expressed HCV NS3 (decrease in NS3-eGFP abundance): 4 hour treatment, increasing concentrations. An excerpt:
A system was set up to monitor NS3 degradation in the absence of other processes of the infectious viral cycle. […] Expressed in the absence of its cofactor, NS4A, the NS3 protein lacks any enzymatic activity, and the abundance of the NS3-eGFP fusion protein can be reliably monitored by eGFP fluorescence. Since the mCherry portion of the fusion protein is cleaved off during translation, its abundance in cells is not affected by small molecule-induced degradation of NS3-eGFP, and thus it serves as a control for protein expression. […]
The NS3 expressing cells were treated with increasing concentrations of compounds 13 and 22 for 4 hours. […] Compound 11 is an alpha-hydroxylamide analog of compound 13 that cannot form a covalent bond with the catalytic serine of the HCV NS3/4A protease due to a modification of the α-ketoamide group. […] The NS3 expressing cells were treated with increasing concentrations of compounds for 4 hours.

The next assay has as its target T2, HCV NS3 fusion protein (UniProt P27958+Q96SW2).
T2 construct: expressing the full-length HCV NS3 protein fused to eGFP; mCherry via FMVD 2A self-cleavage linker (C, cleaved yes); expressed in transfected cells
Description: NS3 degradation competition assay with lenalidomide. It is filed as cell-based, Hepatitis C virus. The following applies: Western blot. An excerpt:
The expression of the NS3 fusion protein was induced prior to the treatment of the NS3 expressing cells with an excess of the cereblon ligand lenalidomide.
FIG. 3 is a photograph of a Western blot showing degradation of HCV NS3 in the absence and presence of lenalidomide.
A general note: Immunoblotting shows a protein as a band on a membrane.

For `CCC[C@H](NC(=O)[C@@H]1[C@H]2CCC[C@H]2CN1C(=O)[C@@H](NC(=O)[C@@H](NC(=O)c1cnc(C(=O)NCCOCCOCCNc2cccc3c2C(=O)N(C2CCC(=O)NC2=O)C3=O)cn1)C1CCCCC1)C(C)(C)C)C(O)C(=O)NC1CC1` (stereo partly drawn) [Compound 11, N2-((1S)-1-cyclohexyl-2-((2S)-1-((1S,3aR,6aS)-1-((3S)-1-(cyclopropylamino)-2-hydroxy-1-oxohexan-3-ylcarbamoyl)hexahydrocyclopenta[c]pyrrol-2(1H)-yl)-3,3-dimethyl-1-oxobutan-2-ylamino)-2-oxoethyl)-N5-(2-(2-(2-(2-(2,6-dioxopiperidin-3-yl)-1,3-dioxoisoindolin-4-ylamino)ethoxy)ethoxy)ethyl)pyrazine-2,5-dicarboxamide], the “degradation of transiently expressed HCV NS3 (decrease in NS3-eGFP abundance)” value in assay [1] is given as “did not mediate degradation”.
As for `CCC[C@H](NC(=O)[C@@H]1[C@H]2CCC[C@H]2CN1C(=O)[C@@H](NC(=O)[C@@H](NC(=O)c1cnc(C(=O)NCCOCCOCCNc2cccc3c2C(=O)N(C2CCC(=O)N(C)C2=O)C3=O)cn1)C1CCCCC1)C(C)(C)C)C(=O)C(=O)NC1CC1` (some centres unmarked) [Compound 20], at HCV NS3 fusion protein, the “degradation of NS3 in the presence or absence of lenalidomide” value is given as “no significant degradation of NS3”.
In the case of `CCC[C@H](NC(=O)[C@@H]1[C@H]2CCC[C@H]2CN1C(=O)[C@@H](NC(=O)[C@@H](NC(=O)c1cnc(C(=O)NCCOCCOCCOc2cc3c4c(cccc4c2)C(=O)N(C2CCC(=O)N(C)C2=O)C3=O)cn1)C1CCCCC1)C(C)(C)C)C(=O)C(=O)NC1CC1` (stereo partly drawn) [Compound 22, N2-((S)-1-cyclohexyl-2-((S)-1-((1S,3aR,6aS)-1-((S)-1-(cyclopropylamino)-1,2-dioxohexan-3-ylcarbamoyl)hexahydrocyclopenta[c]pyrrol-2(1H)-yl)-3,3-dimethyl-1-oxobutan-2-ylamino)-2-oxoethyl)-N5-(2-(2-(2-(2-(1-methyl-2,6-dioxopiperidin-3-yl)-1,3-dioxo-2,3-dihydro-1H-benzo[de]isoquinolin-5-yloxy)ethoxy)ethoxy)ethyl)pyrazine-2,5-dicarboxamide], the “degradation of transiently expressed HCV NS3 (decrease in NS3-eGFP abundance)” value in assay [1] is given as “did not degrade HCV NS3”. Further, in assay [1] (N-methylated glutarimide negative controls), the “binding to cereblon (concluded from degradation assay)” value is reported as “unable to bind cereblon”. In addition, at HCV NS3 fusion protein, the “degradation of NS3 in the presence or absence of lenalidomide” value was “no significant degradation of NS3”.

The record behind these values is patent US12642856B2, “Degraders of hepatitis C virus NS3/4A protein” (DANA-FARBER CANCER INSTITUTE, INC., priority 2018, dated 2026).
